Measured values: ChEMBL document CHEMBL1828533, “Lipid and sulfur substituted prenylcysteine analogs as human Icmt inhibitors” (Bioorg Med Chem Lett, 2011)
Calls of active or inactive are those of the source. The rule behind the calls is not given here.

Tests used:
[1] = target: T1, Protein-S-isoprenylcysteine O-methyltransferase (Homo sapiens, UniProt O60725); assay: Inhibition of human ICMT at 10 uM by vapor diffusion assay
[2] = target: T1, Protein-S-isoprenylcysteine O-methyltransferase; assay: Inhibition of human ICMT by vapor diffusion assay
[3] = target: T1, Protein-S-isoprenylcysteine O-methyltransferase; assay: Substrate activity at human ICMT by vapor diffusion assay
[4] = target: T1, Protein-S-isoprenylcysteine O-methyltransferase; assay: Inhibition of human ICMT at 25 uM by vapor diffusion assay

T1 sequence (O60725 whole entry, the tested form may be a part): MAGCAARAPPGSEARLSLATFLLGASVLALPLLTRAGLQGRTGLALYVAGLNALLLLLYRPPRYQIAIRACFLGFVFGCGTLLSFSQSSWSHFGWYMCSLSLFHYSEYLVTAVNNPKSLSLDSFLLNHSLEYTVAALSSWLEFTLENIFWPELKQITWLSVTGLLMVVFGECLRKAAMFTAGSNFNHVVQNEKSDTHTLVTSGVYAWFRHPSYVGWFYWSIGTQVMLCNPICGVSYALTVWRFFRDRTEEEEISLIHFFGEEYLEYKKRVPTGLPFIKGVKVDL

inhibition [1] [%] | Compound | other results
25.3 | CC(=O)N[C@@H](CSC/C=C(/Cc1ccc2c(c1)Cc1ccccc1-2)c1ccccc1)C(=O)O | 
9.8 | CC(=O)N[C@@H](CSC/C=C(\C)COc1ccc(Cc2ccccc2)cc1)C(=O)O | 
26.6 | CC(=O)N[C@@H](CSC/C=C(/Cc1ccc(-c2ccccc2)cc1)c1ccccc1)C(=O)O | 
31.1 | CCCCCCCCc1ccc(CC/C(C)=C/CSC[C@H](NC(C)=O)C(=O)O)cc1 | IC50 [2]: 34.6 µM
10.1 | COc1ccc([N+](=O)[O-])c(C(=O)N[C@@H](Cn2cc(C/C=C(\C)CC/C=C(\C)CCC=C(C)C)nn2)C(=O)O)c1 | Activity [3]: inactive
23.1 | CCCCCc1ccc(CC/C(C)=C/CSC[C@H](NC(C)=O)C(=O)O)cc1 | 
22.4 | CC(=O)N[C@@H](CSC/C=C(\C)CCCCOc1ccc2ccccc2c1)C(=O)O | 
 | CC(=O)N[C@@H](CSC/C=C(/C)CC/C=C(/C)CCC=C(C)C)C(=O)O | inhibition [4]: 100%
15.7 | CC(=O)N[C@@H](CSC/C=C(/Cc1ccccc1)c1ccccc1)C(=O)O | 
15.5 | CC(=O)N[C@@H](CSC/C=C(\C)COc1ccc(Oc2ccccc2)cc1)C(=O)O | 
17 | CC(C)=CCC/C(C)=C/CC/C(C)=C/Cc1cn(C[C@H](NC(=O)c2ccccc2-c2ccccc2)C(=O)O)nn1 | Activity [3]: inactive
19.4 | CC(=O)N[C@@H](CSC/C=C(\C)CCCCOc1ccc(Oc2ccccc2)cc1)C(=O)O | 
18.8 | CCCCCCc1ccc(CC/C(C)=C/CSC[C@H](NC(C)=O)C(=O)O)cc1 | 
20.7 | CCCc1ccc(CC/C(C)=C/CSC[C@H](NC(C)=O)C(=O)O)cc1 | 
14.5 | CC(=O)N[C@@H](CSC/C=C(\C)COc1ccc2ccccc2c1)C(=O)O | 
35.9 | CC(C)=CCC/C(C)=C/CC/C(C)=C/Cc1cn(C[C@H](NC(=O)c2ccccc2Oc2ccccc2)C(=O)O)nn1 | IC50 [2]: 19.4 µM
19.5 | CC(=O)N[C@@H](Cn1cc(C/C=C(\C)CC/C=C(\C)CCC=C(C)C)nn1)C(=O)O | Activity [3]: inactive
22.7 | CC(C)=CCC/C(C)=C/CC/C(C)=C/Cc1cn(C[C@H](NC(=O)CCS(=O)(=O)c2ccccc2)C(=O)O)nn1 | Activity [3]: inactive
